Source: patent US20140179664A1, “Heterocyclyl Pyrimidine Analogues As JAK Inhibitors” (Cellzome Limited, priority 2011, published 2014)
pIC50: −log10 of the molar value.

Experiments:
Format in all cases: binding
JAK1 = target: T1, JAK1 (Homo sapiens, UniProt P23458); experiment: Kinobeads assay, JAK1; details: mixed Molt4/Ramos lysate, read-out: Inhibition values (IC50) JAK1
T1 construct: endogenous in cells; host or cells: Molt4 (ATCC CRL-1582) and Ramos (ATCC CRL-1596), mixed lysate 1:2
Description: After the incubation time the beads with captured proteins were separated from the lysate. Bound proteins were then eluted and the presence of JAK1, JAK2, JAK3 and TYK2 was detected and quantified using specific antibodies in a dot blot procedure and the Odyssey infrared detection system. Dose response curves for individual kinases were generated and IC50 values calculated.
(§1) 5×DP buffer: 250 mM Tris-HCl pH 7.4, 25% Glycerol, 7.5 mM MgCl2, 750 mM NaCl, 5 mM Na3VO4; filter the 5×DP buffer through a 0.22 μm filter and store in aliquots at −80° C. The 5×DP buffer is diluted with H2O to 1×DP buffer containing 1 mM DTT and 25 mM NaF.
Stock solutions of test compounds were prepared in DMSO. […] Starting with this solution a 1:3 dilution series (9 steps) was prepared. For control experiments (no test compound) a buffer containing 2% DMSO was used.
Cells were homogenized in a Potter S homogenizer in lysis buffer: 50 mM Tris-HCl, 0.8% NP40, 5% glycerol, 150 mM NaCl, 1.5 mM MgCl2, 25 mM NaF, 1 mM sodium vanadate, 1 mM DTT, pH 7.5. […] The material was dounced 10 times using a mechanized POTTER S, transferred to 50 mL falcon tubes, incubated for 30 minutes on ice and spun down for 10 minutes at 20,000 g at 4° C. (10,000 rpm in Sorvall SLA600, precooled). […] (33.500 rpm in Ti50.2, precooled). The supernatant was transferred again to a fresh 50 mL falcon tube, the protein concentration was determined by a Bradford assay (BioRad) and samples containing 50 mg of protein per aliquot were prepared. The samples were immediately used for experiments or frozen in liquid nitrogen and stored frozen at −80° C.
Cell lysate (approximately 50 mg protein per plate) was thawed in a water bath at room temperature and then stored on ice. […] The diluted cell lysate was stored on ice. Mixed Molt4/Ramos lysate was prepared by combining one volume of Molt4 lysate and two volumes of Ramos lysate (ratio 1:2).
Plates were sealed and incubated for 3 hours in a cold room on a plate shaker (Heidolph tiramax 1000) at 750 rpm. Afterwards the plate was washed 3 times with 230 μL washing buffer (1×DP 0.4% NP40). […] The eluate was frozen quickly at −80° C. and stored at −20° C.
Afterwards the membrane was washed twice for 10 minutes with PBS buffer containing 0.2% Tween 20 at room temperature. […] Afterwards the membrane was washed twice for 10 minutes each with 1×PBS buffer containing 0.2% Tween 20 at room temperature. Then the membrane was rinsed once with PBS buffer to remove residual Tween 20. The membrane was kept in PBS buffer at 4° C. and then scanned with the Odyssey instrument. Fluorescence signals were recorded and analysed according to the instructions of the manufacturer.

TYK2 = target: T2, TYK2 (Homo sapiens, UniProt P29597); experiment: Kinobeads assay, TYK2; details: mixed Molt4/Ramos lysate, read-out: Inhibition values (IC50) TYK2
T2 construct: endogenous in cells; host or cells: Molt4 (ATCC CRL-1582) and Ramos (ATCC CRL-1596), mixed lysate 1:2
T2 sequence (P29597 whole entry): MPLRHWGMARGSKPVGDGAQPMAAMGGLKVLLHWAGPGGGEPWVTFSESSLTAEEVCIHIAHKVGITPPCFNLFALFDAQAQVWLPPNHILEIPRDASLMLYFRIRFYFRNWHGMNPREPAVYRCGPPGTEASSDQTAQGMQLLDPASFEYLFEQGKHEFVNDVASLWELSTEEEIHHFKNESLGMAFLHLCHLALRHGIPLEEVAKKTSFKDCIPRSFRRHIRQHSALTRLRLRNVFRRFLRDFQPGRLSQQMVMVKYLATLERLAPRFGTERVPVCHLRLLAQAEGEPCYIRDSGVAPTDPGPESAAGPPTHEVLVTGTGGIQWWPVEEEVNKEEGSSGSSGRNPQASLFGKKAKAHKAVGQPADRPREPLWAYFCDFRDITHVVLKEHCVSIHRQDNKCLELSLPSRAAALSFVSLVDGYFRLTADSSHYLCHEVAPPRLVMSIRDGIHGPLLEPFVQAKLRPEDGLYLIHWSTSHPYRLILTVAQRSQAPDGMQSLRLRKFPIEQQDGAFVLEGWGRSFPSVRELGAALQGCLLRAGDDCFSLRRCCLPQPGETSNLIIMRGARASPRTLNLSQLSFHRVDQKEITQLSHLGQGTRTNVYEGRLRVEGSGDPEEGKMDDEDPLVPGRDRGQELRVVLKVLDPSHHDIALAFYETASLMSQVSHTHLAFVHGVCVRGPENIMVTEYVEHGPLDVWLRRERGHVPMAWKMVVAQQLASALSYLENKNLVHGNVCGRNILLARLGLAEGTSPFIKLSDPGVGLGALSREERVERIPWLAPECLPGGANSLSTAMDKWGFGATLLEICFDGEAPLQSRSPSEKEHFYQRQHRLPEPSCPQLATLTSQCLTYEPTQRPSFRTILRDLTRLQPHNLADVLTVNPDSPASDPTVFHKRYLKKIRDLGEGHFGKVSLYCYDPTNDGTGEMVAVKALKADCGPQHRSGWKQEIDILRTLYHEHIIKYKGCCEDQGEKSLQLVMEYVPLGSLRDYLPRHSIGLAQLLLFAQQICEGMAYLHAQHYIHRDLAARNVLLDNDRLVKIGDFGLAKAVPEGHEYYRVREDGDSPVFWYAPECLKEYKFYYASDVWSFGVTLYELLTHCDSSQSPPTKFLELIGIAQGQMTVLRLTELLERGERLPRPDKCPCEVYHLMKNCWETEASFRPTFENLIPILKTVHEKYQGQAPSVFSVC
Description: (§2) The compounds of the present invention as described in the previous examples were tested in a Kinobeads™ assay as described for ZAP-70 (WO-A 2007/137867). Briefly, test compounds (at various concentrations) and the affinity matrix with the immobilized aminopyrido-pyrimidine ligand 24 were added to cell lysate aliquots and allowed to bind to the proteins in the lysate sample. After the incubation time the beads with captured proteins were separated from the lysate. Bound proteins were then eluted and the presence of JAK1, JAK2, JAK3 and TYK2 was detected and quantified using specific antibodies in a dot blot procedure and the Odyssey infrared detection system. Dose response curves for individual kinases were generated and IC50 values calculated. Kinobeads™ assays for ZAP-70 (WO-A 2007/137867) and for kinase selectivity profiling (WO-A 2006/134056) have been previously described.
(§3) The affinity matrix was washed two times with 15 mL of lx DP buffer containing 0.2% NP40 (IGEPAL® CA-630, Sigma, #13021) and then resuspended in 1×DP buffer containing 0.2% NP40 (3% beads slurry).
as §1
(§4) Stock solutions of test compounds were prepared in DMSO. In a 96 well plate […] solution of diluted test compounds at 5 mM in DMSO were prepared. Starting with this solution a 1:3 dilution series (9 steps) was prepared. For control experiments (no test compound) a buffer containing 2% DMSO was used.
(§5) Molt4 cells (ATCC catalogue number CRL-1582) and Ramos cells (ATCC catalogue number CRL-1596) were grown in 1 L Spinner flasks (Integra Biosciences, #182101) in suspension in RPMI 1640 medium (Invitrogen, #21875-034) supplemented with 10% Fetal Bovine Serum (Invitrogen) at a density between 0.15×10^6 and 1.2×10^6 cells/mL. Cells were harvested by centrifugation, washed once with 1×PBS buffer (Invitrogen, #14190-094) and cell pellets were frozen in liquid nitrogen and subsequently stored at −80° C. Cells were homogenized in a Potter S homogenizer in lysis buffer: 50 mM Tris-HCl, 0.8% NP40, 5% glycerol, 150 mM NaCl, 1.5 mM MgCl2, 25 mM NaF, 1 mM sodium vanadate, 1 mM DTT, pH 7.5. One complete EDTA-free tablet (protease inhibitor cocktail, Roche Diagnostics, 1873580) per 25 mL buffer was added. The material was dounced 10 times using a mechanized POTTER S, transferred to 50 mL falcon tubes, incubated for 30 minutes on ice and spun down for 10 minutes at 20,000 g at 4° C. (10,000 rpm in Sorvall SLA600, precooled). The supernatant was transferred to an ultracentrifuge (UZ)-polycarbonate tube (Beckmann, 355654) and spun for 1 hour at 100.000 g at 4° C. (33.500 rpm in Ti50.2, precooled). The supernatant was transferred again to a fresh 50 mL falcon tube, the protein concentration was determined by a Bradford assay (BioRad) and samples containing 50 mg of protein per aliquot were prepared. The samples were immediately used for experiments or frozen in liquid nitrogen and stored frozen at −80° C.
(§6) Cell lysate (approximately 50 mg protein per plate) was thawed in a water bath at room temperature and then stored on ice. To the thawed cell lysate 1×DP 0.8% NP40 buffer containing protease inhibitors (1 tablet for 25 mL buffer; EDTA-free protease inhibitor cocktail; Roche Diagnostics 1873580) was added in order to reach a final protein concentration of 10 mg/mL total protein. The diluted cell lysate was stored on ice. Mixed Molt4/Ramos lysate was prepared by combining one volume of Molt4 lysate and two volumes of Ramos lysate (ratio 1:2).
(§7) To a 96 well filter plate (Multiscreen HTS, BV Filter Plates, Millipore #MSBVN1250) were added per well: 100 μL affinity matrix (3% beads slurry), […], of compound solution, and 50 μL of diluted lysate. […]

JAK2 = target: T3, JAK2 (Homo sapiens, UniProt O60674); experiment: Kinobeads assay, JAK2; details: mixed Molt4/Ramos lysate, read-out: Inhibition values (IC50) JAK2
T3 construct: endogenous in cells; host or cells: Molt4 (ATCC CRL-1582) and Ramos (ATCC CRL-1596), mixed lysate 1:2
T3 sequence (O60674 whole entry): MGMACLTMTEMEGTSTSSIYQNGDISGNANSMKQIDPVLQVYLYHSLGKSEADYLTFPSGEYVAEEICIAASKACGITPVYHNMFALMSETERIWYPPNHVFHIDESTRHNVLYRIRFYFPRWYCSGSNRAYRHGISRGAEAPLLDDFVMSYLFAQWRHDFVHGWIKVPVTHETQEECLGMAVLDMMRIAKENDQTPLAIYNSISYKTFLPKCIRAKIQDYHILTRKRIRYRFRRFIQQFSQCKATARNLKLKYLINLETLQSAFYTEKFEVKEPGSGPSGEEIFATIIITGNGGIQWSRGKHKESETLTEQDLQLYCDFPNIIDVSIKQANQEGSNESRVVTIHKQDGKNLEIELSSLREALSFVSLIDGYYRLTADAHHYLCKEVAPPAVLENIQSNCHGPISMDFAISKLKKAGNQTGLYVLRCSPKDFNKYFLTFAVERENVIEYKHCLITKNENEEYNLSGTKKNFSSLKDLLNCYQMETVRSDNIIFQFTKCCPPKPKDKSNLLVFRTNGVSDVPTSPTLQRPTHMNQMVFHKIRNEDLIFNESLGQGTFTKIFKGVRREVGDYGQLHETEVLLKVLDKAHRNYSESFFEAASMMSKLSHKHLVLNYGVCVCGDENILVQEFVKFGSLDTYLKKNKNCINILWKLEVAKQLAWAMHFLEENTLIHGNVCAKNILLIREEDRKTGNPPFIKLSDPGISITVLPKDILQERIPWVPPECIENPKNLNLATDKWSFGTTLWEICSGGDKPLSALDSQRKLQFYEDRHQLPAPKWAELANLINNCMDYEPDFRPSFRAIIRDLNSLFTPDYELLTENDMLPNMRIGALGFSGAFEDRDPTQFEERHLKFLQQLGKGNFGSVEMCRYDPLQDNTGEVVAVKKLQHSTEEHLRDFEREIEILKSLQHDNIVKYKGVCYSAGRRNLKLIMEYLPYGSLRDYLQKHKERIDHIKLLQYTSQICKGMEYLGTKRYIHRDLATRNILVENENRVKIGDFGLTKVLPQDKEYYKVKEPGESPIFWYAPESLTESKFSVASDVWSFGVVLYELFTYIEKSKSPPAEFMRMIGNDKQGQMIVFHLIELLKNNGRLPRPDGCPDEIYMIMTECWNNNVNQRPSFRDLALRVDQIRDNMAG
Description: as §2, §3, §1, §4, §5, §6, §7

T1 sequence (P23458 whole entry): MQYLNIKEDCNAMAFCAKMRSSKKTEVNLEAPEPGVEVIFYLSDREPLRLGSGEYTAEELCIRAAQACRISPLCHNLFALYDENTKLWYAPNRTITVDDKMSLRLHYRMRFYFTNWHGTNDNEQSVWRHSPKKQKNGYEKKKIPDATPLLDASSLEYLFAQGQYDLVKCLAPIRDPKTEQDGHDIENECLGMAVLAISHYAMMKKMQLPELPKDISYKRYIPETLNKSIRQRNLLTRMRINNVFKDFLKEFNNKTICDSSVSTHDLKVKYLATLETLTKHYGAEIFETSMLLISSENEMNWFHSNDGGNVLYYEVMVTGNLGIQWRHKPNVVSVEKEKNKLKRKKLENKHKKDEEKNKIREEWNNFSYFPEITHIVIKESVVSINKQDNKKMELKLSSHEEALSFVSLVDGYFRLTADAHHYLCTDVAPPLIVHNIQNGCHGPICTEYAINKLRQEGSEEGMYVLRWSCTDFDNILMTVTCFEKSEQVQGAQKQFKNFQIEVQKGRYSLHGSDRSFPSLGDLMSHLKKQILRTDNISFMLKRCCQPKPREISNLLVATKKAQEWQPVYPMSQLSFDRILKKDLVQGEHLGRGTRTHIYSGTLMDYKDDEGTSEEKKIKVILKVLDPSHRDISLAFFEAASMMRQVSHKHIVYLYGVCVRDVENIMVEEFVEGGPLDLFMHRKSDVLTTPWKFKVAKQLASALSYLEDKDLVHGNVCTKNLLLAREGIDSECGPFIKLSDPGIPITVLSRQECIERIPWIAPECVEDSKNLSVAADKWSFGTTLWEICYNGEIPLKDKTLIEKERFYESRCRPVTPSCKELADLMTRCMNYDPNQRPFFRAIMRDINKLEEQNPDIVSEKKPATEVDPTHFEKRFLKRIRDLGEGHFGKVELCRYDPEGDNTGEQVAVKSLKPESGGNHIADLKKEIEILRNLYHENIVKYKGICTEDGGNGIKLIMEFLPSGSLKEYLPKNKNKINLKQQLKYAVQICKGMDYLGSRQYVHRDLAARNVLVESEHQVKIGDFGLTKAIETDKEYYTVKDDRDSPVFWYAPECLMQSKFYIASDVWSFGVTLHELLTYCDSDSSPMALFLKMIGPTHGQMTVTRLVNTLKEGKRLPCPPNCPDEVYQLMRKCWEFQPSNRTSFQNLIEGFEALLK

Row | Structure (SMILES) | pIC50 (JAK1) | pIC50 (TYK2) | pIC50 (JAK2)
1 | O=C(NCC(F)(F)F)C(Nc1nc(Nc2cnn(CCO)c2)ncc1Cl)c1ccccc1F (stereo not drawn) [Compound 128] | 5.00 to 6.00 | 5.00 to 6.00 | ≤ 5.00
2 | Cn1cc(Nc2ncc(Cl)c(NC(C)(CO)c3ccccc3)n2)cn1 (stereo not drawn) [Compound 7] | 5.00 to 6.00 | 5.00 to 6.00 | ≤ 5.00
3 | CNC(=O)Cn1cc(Nc2ncc(F)c(N[C@H](CO)c3cc(F)cc(F)c3)n2)cn1 [Compound 161] | 6.00 to 7.00 | 6.00 to 7.00 | 5.00 to 6.00
4 | NC(=O)Cn1cc(Nc2ncc(F)c(N[C@H](CO)c3ccccc3)n2)cn1 [Compound 108] | 5.00 to 6.00 | 5.00 to 6.00 | ≤ 5.00
5 | O=C(Cn1cc(Nc2ncc(F)c(N[C@H](CO)c3ccccc3)n2)cn1)N1CCOCC1 [Compound 112] | 5.00 to 6.00 | 6.00 to 7.00 | ≤ 5.00
6 | CC(C)OCCn1cc(Nc2ncc(Cl)c(N[C@H](CO)c3ccccc3)n2)cn1 [Compound 114] | 5.00 to 6.00 | 5.00 to 6.00 | 5.00 to 6.00
7 | CNC(=O)Cn1cc(Nc2ncc(F)c(N[C@H](CO)c3cccc(-c4cnn(C)c4)c3)n2)cn1 [Compound 155] | < 5.00 | ≤ 5.00 | ≤ 5.00
8 | CNC(=O)Cn1cc(Nc2ncc(F)c(N[C@H](CO)c3ccccc3)n2)cn1 [Compound 111] | 5.00 to 6.00 | 5.00 to 6.00 | ≤ 5.00

The remaining lines, values ahead:

Row | pIC50 (JAK1) | pIC50 (TYK2) | pIC50 (JAK2) | Structure (SMILES)
9 | > 7.00 | 6.00 to 7.00 | 6.00 to 7.00 | NC(=O)Cn1cc(Nc2ncc(Cl)c(NC(CO)c3cc(F)ccc3F)n2)cn1 (stereo not drawn) [Compound 132]
10 | 6.00 to 7.00 | 5.00 to 6.00 | 5.00 to 6.00 | OCCn1cc(Nc2ncc(Cl)c(N[C@H](CO)c3ccccc3)n2)cn1 [Compound 9]
11 | 6.00 to 7.00 | 6.00 to 7.00 | 5.00 to 6.00 | CNC(=O)Cn1cc(Nc2ncc(F)c(N[C@H](CO)c3cc(F)ccc3F)n2)cn1 [Compound 148]
12 | 5.00 to 6.00 | 5.00 to 6.00 | 5.00 to 6.00 | Cn1cc(Nc2ncc(Cl)c(N[C@H](CO)c3cc(F)cc(-c4cnn(C)c4)c3)n2)cn1 [Compound 137]
13 | 6.00 to 7.00 | 6.00 to 7.00 | 6.00 to 7.00 | Cn1cc(Nc2ncc(Cl)c(NC(CO)c3cc(F)ccc3F)n2)cn1 (stereo not drawn) [Compound 129]
14 | 5.00 to 6.00 | 5.00 to 6.00 | 5.00 to 6.00 | Cn1cc(Nc2ncc(Cl)c(N[C@H](CO)c3ccccc3)n2)cn1 [Compound 4]
15 | 5.00 to 6.00 | 5.00 to 6.00 | 6.00 to 7.00 | CC(C)n1cc(Nc2ncc(Cl)c(N[C@H](CO)c3ccccc3F)n2)cn1 [Compound 110]
16 | 5.00 to 6.00 | 5.00 to 6.00 | 5.00 to 6.00 | CN(C)C(=O)C(Nc1nc(Nc2cnn(CCO)c2)ncc1Cl)c1ccccc1F (stereo not drawn) [Compound 127]
17 | 6.00 to 7.00 | 6.00 to 7.00 | 6.00 to 7.00 | OCCn1cc(Nc2ncc(F)c(N[C@H](CO)c3cc(F)ccc3F)n2)cn1 [Compound 147]
